Measurements taken from patent US8183380B2, “2-aminoquinolines” (Hoffmann-La Roche Inc., priority 2008, dated 2012).

What follows are compounds tested against T1, recombinant human 5-HT5A receptor (Homo sapiens, UniProt P47898) (assay: [3H]LSD radioligand binding assay). Details: [3H]LSD (approximately 1 nM); membranes from transiently expressed 5-HT5A receptors in HEK-EBNA cells; Ki from IC50 by Cheng-Prussoff equation.
T1 construct: expressed in transfected cells; host or cells: HEK-EBNA (Human Embryonic Kidney-EBNA) cells, transient cDNA expression; membranes
T1 sequence (P47898 whole entry): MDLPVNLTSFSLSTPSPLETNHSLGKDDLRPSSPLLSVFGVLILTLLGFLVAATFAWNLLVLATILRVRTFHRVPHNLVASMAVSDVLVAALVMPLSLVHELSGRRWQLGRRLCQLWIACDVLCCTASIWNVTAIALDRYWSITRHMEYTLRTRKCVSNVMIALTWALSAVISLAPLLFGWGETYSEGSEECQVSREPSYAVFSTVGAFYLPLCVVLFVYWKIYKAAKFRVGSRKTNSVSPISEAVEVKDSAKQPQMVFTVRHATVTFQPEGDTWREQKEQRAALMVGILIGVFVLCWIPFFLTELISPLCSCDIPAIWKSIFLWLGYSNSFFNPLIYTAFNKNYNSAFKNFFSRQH
Protocol: A [^3H]LSD radioligand binding assay was used to determine the affinity of the compounds for the recombinant human 5-HT5A receptor, in membranes from transiently (cDNA) expressed 5-HT5A receptors in Human Embryonic Kidney-EBNA (HEK-EBNA) cells. Assay buffer consisted of Tris (50 mM) buffer containing 1 mM EGTA, 10 mM MgCl2 (pH 7.4) and 10 μM pargyline. The binding assay was carried out in 96-well-plates in the presence of [^3H]LSD (approximately 1 nM), approximately 2 μg/well of membrane protein, and 0.5 mg of Ysi-poly-1-lysine SPA beads in a final volume of 200 μl of buffer. Non-specific binding was defined using methiothepin 2 μM. Compounds were tested at 10 concentrations. All assays were conducted in duplicate and repeated at least two times. Assay plates were incubated for 120 min at room temperature before centrifugation. Bound ligand was determined using a Packard Topcount scintillation counter. IC50 values were calculated using a non-linear curve fitting program and Ki values calculated using the Cheng-Prussoff equation.

For CC(C)NC(=O)Nc1ccc2nc(NC3CCc4cccc(F)c43)ccc2c1 (racemic) [Example 146, rac-1-[2-(7-Fluoro-indan-1-ylamino)-quinolin-6-yl]-3-isopropyl-urea], which Ki is on record?
The Ki was 6.1 nM.

With CC(C)N1CCC(NC(=O)Nc2ccc3nc(NC4CCc5cccc(F)c54)ccc3c2)CC1 (racemic) [Example 156, rac-1-[2-(7-Fluoro-indan-1-ylamino)-quinolin-6-yl]-3-(1-isopropyl-piperidin-4-yl)-urea] as the compound, how does the Ki read?
The Ki was 3.8 nM.

Which Ki does the source give for CC(C)OC(=O)Nc1ccc2nc(N[C@@H]3CCc4ccccc43)ccc2c1 [Example 138, [2-((R)-Indan-1-ylamino)-quinolin-6-yl]-carbamic acid isopropyl ester] here?
Its Ki is 8 nM.

Which Ki does the source give for O=C(Nc1ccc2nc(N[C@@H]3CCc4ccccc43)ccc2c1)NC1CCNCC1 [Example 39, 1-[2-((R)-Indan-1-ylamino)-quinolin-6-yl]-3-piperidin-4-yl-urea] here?
Its Ki is 3.9 nM.

How did the Ki turn out when O=C(NCC1CC1)Nc1ccc2nc(N[C@@H]3CCc4ccccc43)ccc2c1 [Example 23, 1-Cyclopropylmethyl-3-[2-((R)-indan-1-ylamino)-quinolin-6-yl]-urea] was run?
Its Ki is 4.7 nM.

O=C(Nc1ccc2nc(N[C@@H]3CCc4ccccc43)ccc2c1)N[C@@H]1C[C@H]2CCC[C@@H](C1)N2C1CC1 [Example 110, 1-((3-exo)-9-Cyclopropyl-9-aza-bicyclo[3.3.1]non-3-yl)-3-[2-((R)-indan-1-ylamino)-quinolin-6-yl]-urea] was tested. Which Ki did it give?
The Ki was 7.2 nM.

With COc1cccc2c1C(Nc1ccc3cc(NC(=O)NC4CCN(C)CC4)ccc3n1)CC2 (racemic) [Example 40, rac-1-[2-(7-Methoxy-indan-1-ylamino)-quinolin-6-yl]-3-(1-methyl-piperidin-4-yl)-urea] as the compound, how does the Ki read?
The Ki was 2.2 nM.

How did the Ki turn out when “(2-Methoxy-ethyl)-methyl-sulfonic acid [2-((R)-indan-1-ylamino)quinolin-6-yl]-amide [Example 75]” was run?
Its Ki is 8.3 nM.

With COc1cccc2c1C(Nc1ccc3cc(NC(=O)N[C@@H]4C[C@H]5CC[C@@H](C4)N5C(C)C)ccc3n1)CC2 (mixture of isomers) [Example 186, rac-1-((3-exo)-8-Isopropyl-8-aza-bicyclo[3.2.1]oct-3-yl)-3-[2-(7-methoxy-indan-1-ylamino)-quinolin-6-yl]-urea] as the compound, how does the Ki read?
Its Ki is 5.7 nM.

With CC(C)N1CCC(NC(=O)Nc2ccc3nc(N[C@@H]4CCc5ccccc54)ccc3c2)CC1 [Example 42, 1-[2-((R)-Indan-1-ylamino)-quinolin-6-yl]-3-(1-isopropyl-piperidin-4-yl)-urea] as the compound, how does the Ki read?
Its Ki is 2.4 nM.

COc1cccc2c1C(Nc1ccc3cc(NC(=O)N(C)C4CCN(CC(C)(C)O)CC4)ccc3n1)CC2 (racemic) [Example 191, rac-1-[1-(2-Hydroxy-2-methyl-propyl)-piperidin-4-yl]-3-[2-(7-methoxy-indan-1-ylamino)-quinolin-6-yl]-1-methyl-urea] was tested. Which Ki did it give?
The Ki was 6.9 nM.

For COc1cccc2c1C(Nc1ccc3cc(N)ccc3n1)CC2 (racemic) [Example 172, rac-N^2-(7-Methoxy-indan-1-yl)-quinoline-2,6-diamine], which Ki is on record?
Its Ki is 3.3 nM.

Which Ki does the source give for CN1CCC(NC(=O)Nc2ccc3nc(N[C@@H]4CCc5ccccc54)ccc3c2)CC1 [Example 20, 1-[2-((R)-Indan-1-ylamino)-quinolin-6-yl]-3-(1-methyl-piperidin-4-yl)-urea] here?
Its Ki is 1.8 nM.

For COCCN1CCC(NC(=O)Nc2ccc3nc(NC4CCCc5cccc(OC)c54)ccc3c2)CC1 (racemic) [Example 58, rac-1-[1-(2-Methoxy-ethyl)-piperidin-4-yl]-3-[2-(8-methoxy-1,2,3,4-tetrahydro-naphthalen-1-ylamino)-quinolin-6-yl]-urea], which Ki is on record?
The Ki was 5.3 nM.

Which Ki does the source give for COc1cccc2c1C(Nc1ccc3cc(NC(=O)NC4CCN(CCF)CC4)ccc3n1)CC2 (racemic) [Example 46, rac-1-[1-(2-Fluoro-ethyl)-piperidin-4-yl]-3-[2-(7-methoxy-indan-1-ylamino)-quinolin-6-yl]-urea] here?
The Ki was 2.7 nM.

O=C(Nc1ccc2nc(N[C@@H]3CCc4ccccc43)ccc2c1)NC1CC2CCC1C2 (stereo partly drawn) [Example 26, 1-Bicyclo[2.2.1]hept-2-yl-3-[2-((R)-indan-1-ylamino)-quinolin-6-yl]-urea] was tested. Which Ki did it give?
The Ki was 4.8 nM.

With CN1CCC(NC(=O)Nc2ccc3nc(NC4COc5ccccc54)ccc3c2)CC1 (racemic) [Example 35, rac-1-[2-(2,3-Dihydro-benzofuran-3-ylamino)-quinolin-6-yl]-3-(1-methyl-piperidin-4-yl)-urea] as the compound, how does the Ki read?
Its Ki is 9.6 nM.

For O=C(Nc1ccc2nc(NC3CCc4cc(F)ccc43)ccc2c1)C1CC1 (racemic) [Example 141, rac-Cyclopropanecarboxylic acid [2-(5-fluoro-indan-1-ylamino)-quinolin-6-yl]-amide], which Ki is on record?
Its Ki is 8.6 nM.

With CS(=O)(=O)CCN1CCC(NC(=O)Nc2ccc3nc(N[C@@H]4CCc5ccccc54)ccc3c2)CC1 [Example 135, 1-[2-((R)-Indan-1-ylamino)-quinolin-6-yl]-3-[1-(2-methanesulfonyl-ethyl)-piperidin-4-yl]-urea] as the compound, how does the Ki read?
Its Ki is 5.7 nM.

For COc1cccc2c1C(Nc1ccc3cc(NC(=O)NC(C)C)ccc3n1)CC2 (racemic) [Example 12, rac-1-Isopropyl-3-[2-(7-methoxy-indan-1-ylamino)-quinolin-6-yl]-urea], which Ki is on record?
The Ki was 1.5 nM.

How did the Ki turn out when O=S(=O)(Nc1ccc2nc(N[C@@H]3CCc4ccccc43)ccc2c1)N1CCOCC1 [Example 76, Morpholine-4-sulfonic acid [2-((R)-indan-1-ylamino)-quinolin-6-yl]-amide] was run?
Its Ki is 9.9 nM.

For CN(C)C(=O)CN1CCC(NC(=O)Nc2ccc3nc(N[C@@H]4CCc5ccccc54)ccc3c2)CC1 [Example 136, 2-(4-{3-[2-((R)-Indan-1-ylamino)-quinolin-6-yl]-ureido}-piperidin-1-yl)-N,N-dimethylacetamide], which Ki is on record?
The Ki was 6.5 nM.

COc1cccc2c1C(Nc1ccc3cc(NC(=O)C4CC4)ccc3n1)CC2 (racemic) [Example 140, rac-Cyclopropanecarboxylic acid [2-(7-methoxy-indan-1-ylamino)-quinolin-6-yl]-amide] was tested. Which Ki did it give?
The Ki was 2.2 nM.

For COc1cccc2c1C(Nc1ccc3cc(NC(=O)CN4CCN(C)CC4)ccc3n1)CC2 (racemic) [Example 139, rac-N-[2-(7-Methoxy-indan-1-ylamino)-quinolin-6-yl]-2-(4-methyl-piperazin-1-yl)-acetamide], which Ki is on record?
Its Ki is 4.4 nM.

Which Ki does the source give for O=C(Nc1ccc2nc(N[C@@H]3CCc4ccccc43)ccc2c1)NC1CCN(CCC(F)(F)F)CC1 [Example 63, 1-[2-((R)-Indan-1-ylamino)-quinolin-6-yl]-3-[1-(3,3,3-trifluoro-propyl)-piperidin-4-yl]-urea] here?
Its Ki is 10.4 nM.

For COc1cccc2c1C(Nc1ccc3cc(NC(=O)NC4CCN(CCC(F)(F)F)CC4)ccc3n1)CC2 (racemic) [Example 47, rac-1-[2-(7-Methoxy-indan-1-ylamino)-quinolin-6-yl]-3-[1-(3,3,3-trifluoro-propyl)-piperidin-4-yl]-urea], which Ki is on record?
Its Ki is 3 nM.

With CN(C1CC1)S(=O)(=O)Nc1ccc2nc(N[C@@H]3CCc4ccccc43)ccc2c1 [Example 85, N-cyclopropyl-N′-{2-[(1R)-2,3-dihydro-1H-inden-1-ylamino]quinolin-6-yl}-N-methylsulfamide] as the compound, how does the Ki read?
The Ki was 9.3 nM.

How did the Ki turn out when NC(=S)Nc1ccc2nc(N[C@@H]3CCc4ccccc43)ccc2c1 [Example 149, [2-((R)-Indan-1-ylamino)-quinolin-6-yl]-thiourea] was run?
Its Ki is 14.8 nM.

For COc1cccc2c1C(Nc1ccc3cc(NC(=O)NC4CCN(C)CC4)ccc3n1)CCC2 (racemic) [Example 57, rac-1-[2-(8-Methoxy-1,2,3,4-tetrahydro-naphthalen-1-ylamino)-quinolin-6-yl]-3-(1-methyl-piperidin-4-yl)-urea], which Ki is on record?
Its Ki is 5.8 nM.

How did the Ki turn out when CN1CCN(CC(=O)Nc2ccc3nc(N[C@@H]4CCc5ccccc54)ccc3c2)CC1 [Example 210, N-[2-((R)-Indan-1-ylamino)-quinolin-6-yl]-2-(4-methyl-piperazin-1-yl)-acetamide] was run?
The Ki was 6.7 nM.

Which Ki does the source give for COc1cccc2c1C(Nc1ccc3cc(NC(=O)N(C)C4CCN(CCO)CC4)ccc3n1)CC2 (racemic) [Example 206, rac-1-[1-(2-Hydroxy-ethyl)-piperidin-4-yl]-3-[2-(7-methoxy-indan-1-ylamino)-quinolin-6-yl]-1-methyl-urea] here?
Its Ki is 6.7 nM.

With O=C(Nc1ccc2nc(N[C@@H]3CCc4ccccc43)ccc2c1)NC1CC1 [Example 21, 1-Cyclopropyl-3-[2-((R)-indan-1-ylamino)-quinolin-6-yl]-urea] as the compound, how does the Ki read?
Its Ki is 3.9 nM.

How did the Ki turn out when COCCN1CCC(NC(=O)Nc2ccc3nc(N[C@@H]4CCc5ccccc54)ccc3c2)CC1 [Example 43, 1-[2-((R)-Indan-1-ylamino)-quinolin-6-yl]-3-[1-(2-methoxy-ethyl)-piperidin-4-yl]-urea] was run?
Its Ki is 2.5 nM.

How did the Ki turn out when O=S(=O)(Nc1ccc2nc(N[C@@H]3CCc4ccccc43)ccc2c1)N1C[C@@H]2C[C@H]1CO2 [Example 88, (1S,4S)-2-Oxa-5-aza-bicyclo[2.2.1]heptane-5-sulfonic acid [2-((R)-indan-1-ylamino)-quinolin-6-yl]-amide] was run?
Its Ki is 2.5 nM.

Which Ki does the source give for COc1ccc(C)c2c1C(Nc1ccc3cc(NC(=O)NC(C)C)ccc3n1)CC2 (racemic) [Example 93, rac-1-Isopropyl-3-[2-(7-methoxy-4-methyl-indan-1-ylamino)-quinolin-6-yl]-urea] here?
The Ki was 8.7 nM.

O=C(Nc1ccc2nc(N[C@@H]3CCc4ccccc43)ccc2c1)NC1CCCCC1 [Example 5, 1-Cyclohexyl-3-[2-((R)-indan-1-ylamino)-quinolin-6-yl]-urea] was tested. Which Ki did it give?
The Ki was 2.9 nM.
